In brackets after ≈: the same amount, converted by molar mass. Read-outs that look alike come from different tables or passages of the source.
Experiments:
[1] = Refined Fish Embryo Acute Toxicity test (FET, OECD TG 236): mortality; format: in vivo, zebrafish (Danio rerio); conditions: tg(cyp19a1b:GFP), zebrafish, in vivo, other: waterborne exposure of embryos in test solution, LC50 (96h) experimental (FET test), nominal, brackets 95% CI
Method: (§1) Exposures were carried out in presaturated 24-well plates containing one embryo per well in 2 mL of test solution. The exposure was performed under semistatic conditions, with daily renewal of the test solution. The concentration ranges tested, along with a control with the same percentage of solvent alone, are recapitulated in Table S1. All exposure concentrations are reported as nominal. During the time course of the refined FET tests, embryos were observed after 8 h (coagulation), 24 h (lack of somite formation and nondetachment of the tail), and 48, 72, and 96 h of exposure (nondetection of the heartbeat). […] Moreover, hatching rate and nonlethal developmental effects (i.e., yolk deformity, growth retardation, spontaneous movement, edema, blood tail circulation, heart rate, pigmentation, head and tail/spinal malformations, and hemorrhage) were monitored daily. Tail/spinal malformations included lordosis, kyphosis, scoliosis, and reduced tail length.
(§2) This analysis considered all nonlethal developmental end points monitored in the refined FET assay (see above), except effects on hatching, pigmentation, spontaneous movement, and blood circulation. A teratogenic index (TI) was then calculated as the ratio LC50/EC50.
(§3) Baseline toxicity and experimental FET LC50 values were used to calculate toxic ratios (TR = predicted baseline toxicity LC50/experimental FET LC50). Compounds with TR < 10 were considered as baseline toxicants.

[2] = test system: zfERs / cyp19a1b:GFP in tg(cyp19a1b:GFP) zebrafish embryos; assay: EASZY coexposure with ER antagonist ICI 182,780; format: in vivo, zebrafish (Danio rerio); conditions: also with 48 h ICI pre-exposure
Method: (§4) The tests were conducted according to OECD TG 250. Newly fertilized cyp19a1b-GFP eggs were transferred to glass crystallizing dishes and exposed for 96 h in a humidified climate chamber (27 ± 2 °C) under semistatic conditions with a total renewal of the test solutions each day. Each condition consisted of three crystallizing dishes, each containing 7 embryos and 15 mL of test medium. Embryos were exposed to a range of nonlethal concentrations of chemicals as determined previously based on the refined FET assays. The tested concentration ranges of bisphenols, along with a control with the same percentage of solvent alone, are summarized in Table S2. All exposure concentrations are reported as nominal. At the end of exposure, transgenic zebrafish embryos were collected for fluorescence imaging to quantify GFP intensity. At the end of the experiments, all living zebrafish embryos were euthanized as described above. For coexposure experiments, embryos were exposed to bisphenols in the presence of 1 μM of the ER antagonist ICI 182,780 (ICI). ICI was added together with bisphenols from 0 to 4 dpf (days post fertilization). […] In all coexposure experiments, the final DMSO concentration was 0.02% (v/v).

[3] = cited from earlier work
[4] = test system: cyp19a1b:GFP (brain aromatase) in tg(cyp19a1b:GFP) zebrafish embryos; assay: EASZY assay (OECD TG 250): GFP induction; format: in vivo, zebrafish (Danio rerio); conditions: Danio rerio, 96 h; for EC50: read-out: EASZY relative EC50, nominal
Method: as §4, with “For coexposure experiments, embryos were exposed to bisphenols in the presence of 1 μM of the ER antagonist ICI 182,780 (ICI).” left out
For fluorescence imaging, GFP fold induction was expressed as mean ± SEM, and values were compared to the DMSO control using one-way ANOVA followed by Dunnett’s posthoc test. […]

[5] = test system: hERβ; set-up: method as in Pelch et al.; conditions: HepG2-hERβ; ref Pelch et al.; cited from earlier work
[6] = test system: tg(cyp19a1b:GFP) zebrafish embryos; assay: Refined FET: developmental effects / malformations; format: in vivo, zebrafish (Danio rerio); conditions: nominal; for EC50: Danio rerio, end of 96 h exposure, read-out: EC50 malformations (cumulative sublethal end points); for LOEC deformity of yolk: at least 10% of embryos affected
Method: as §1, §2

[7] = test system: hERβ; set-up: method as in Grimaldi et al.; conditions: HELN-hERβ; ref Grimaldi et al.; cited from earlier work
[8] = target: zebrafish ERβ2 (zfERβ2) (Danio rerio, UniProt Q7ZU32); assay: ZELH-zfERβ2 luciferase reporter gene assay; format: cell-based; conditions: read-out: maximal efficacy
Method: The ZELH-zfERs reporter cell line was previously established after a two-step stable transfection of the zebrafish hepatic cell line ZFL with the luciferase gene under the control of ERE (yielding the ZELH cell line that expresses no functional ER) and the zebrafish ER subtype β2 (yielding the ZELH-zfERβ2 cell line). Cells were cultured, exposed to chemicals for 72 h, and measured for luciferase activity exactly as previously described. , For each chemical, serial dilutions were prepared in DMSO and tested in three independent experiments. The final DMSO concentration in the culture medium was always 0.1% v/v. All tested concentrations refer to nominal concentrations.

[9] = test system: tg(cyp19a1b:GFP) zebrafish embryos; assay: Refined Fish Embryo Acute Toxicity test (FET, OECD TG 236): mortality; format: in vivo, zebrafish (Danio rerio); conditions: nominal, brackets 95% CI
Method: as §1, §2, §3

[10] = test system: Adult Zebrafish; conditions: ref Ren et al. (2017); cited from earlier work
[11] = test system: Zebrafish embryos; conditions: cited from earlier work
[12] = 120h-exposure, ref Qiu et al. (2021)
[13] = zebrafish embryos, ref Ren et al. (2017)

Sequence of zebrafish ERβ2 (zfERβ2) (Q7ZU32 1-553): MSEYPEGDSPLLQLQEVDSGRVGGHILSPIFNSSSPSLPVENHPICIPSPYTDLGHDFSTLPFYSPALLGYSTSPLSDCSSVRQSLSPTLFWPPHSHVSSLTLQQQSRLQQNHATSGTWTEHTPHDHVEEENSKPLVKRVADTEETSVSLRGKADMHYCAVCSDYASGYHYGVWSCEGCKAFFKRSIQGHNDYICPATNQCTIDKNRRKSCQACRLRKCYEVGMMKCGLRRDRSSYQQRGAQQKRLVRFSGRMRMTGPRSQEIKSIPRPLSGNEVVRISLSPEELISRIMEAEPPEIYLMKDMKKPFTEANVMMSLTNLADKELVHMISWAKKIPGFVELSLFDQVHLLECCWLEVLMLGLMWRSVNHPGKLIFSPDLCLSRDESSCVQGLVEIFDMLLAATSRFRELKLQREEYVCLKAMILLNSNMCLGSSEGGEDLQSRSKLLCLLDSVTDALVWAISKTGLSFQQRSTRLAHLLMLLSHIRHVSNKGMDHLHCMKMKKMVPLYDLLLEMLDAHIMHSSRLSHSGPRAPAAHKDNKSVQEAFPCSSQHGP

C=CCOc1ccc(S(=O)(=O)c2ccc(O)cc2)cc1 [BPS-MAE, 4-(4-prop-2-enoxyphenyl)sulfonylphenol]
LC50 at 96 h [1]: 20.1 µg/mL (≈ 69.1 µM) | effect of ICI 1 μM on bisphenol-induced GFP [2]: unable to block | Log Kow ([3]; ref ChemSpider): 3.13 | minimal effective concentration ([4]; read-out: EASZY LOEC (GFP induction), nominal): 0.625 µg/mL | EC50 [4]: 0.327 µg/mL (≈ 1.13 µM) | maximal efficacy [5]: 6% | EC50 [6]: 6.84 µg/mL (≈ 23.6 µM) | LOEC edema [6]: 33.3 mg/L | LOEC heart rate disruption [6]: 33.3 mg/L | LOEC no blood tail circulation [6]: 33.3 mg/L | LOEC no spontaneous movement [6]: 33.3 mg/L | LOEC no/Less pigmentation [6]: 33.3 mg/L | LOEC tail/spinal malformations [6]: 33.3 mg/L

Oc1ccc(C(=C(Cl)Cl)c2ccc(O)cc2)cc1 [BPC-Cl, 4-[2,2-dichloro-1-(4-hydroxyphenyl)ethenyl]phenol]
LC50 at 96 h [1]: 4.18 µg/mL (≈ 14.9 µM) | effect of ICI 1 μM on bisphenol-induced GFP [2]: unable to block | EC50 [7]: 46 nM | maximal efficacy [7]: 35% | Log Kow ([3]; ref ChemSpider): 4.25 | EC50 [4]: 0.015 µg/mL (≈ 0.0534 µM) | Emax [8]: 61% | EC50 [6]: 1.28 µg/mL (≈ 4.55 µM) | LOEC edema [6]: 0.99 mg/L | LOEC heart rate disruption [6]: 8.89 mg/L | LOEC hemorrhage [6]: 2.96 mg/L | LOEC no blood tail circulation [6]: 8.89 mg/L | LOEC no spontaneous movement [6]: 2.96 mg/L | LOEC no/Less pigmentation [6]: 8.89 mg/L | LOEC tail/spinal malformations [6]: 8.89 mg/L | LOEC deformity of yolk [6]: 0.99 mg/L

Oc1ccc(Cc2ccc(O)cc2)cc1 [BPF, 4-[(4-hydroxyphenyl)methyl]phenol]
LC50 (96h) experimental (FET test) [9]: 35.07 [33.99;35.07] mg/L | LC50 at 96 h [1]: 35 µg/mL (≈ 175 µM) | EC50 [7]: 952 nM | maximal efficacy [7]: 100% | LC50(24h) [10]: 10.10 µg/mL (≈ 50.4 µM) | LC50(48h) [10]: 9.86 µg/mL (≈ 49.2 µM) | LC50(72h) [10]: 9.51 µg/mL (≈ 47.5 µM) | LC50(96h) [10]: 9.51 µg/mL (≈ 47.5 µM) | Log Kow ([3]; ref Adamovsky et al.): 2.91 | EC50 [4]: 0.407 µg/mL (≈ 2.03 µM) | Hatching success EC50(72h) ([11]; 4-days exposure, ref Moreman et al. (2017)): 14 (0.41) mg/L | LOEC (body length, GnRH3 neurons, reproductive neuroendocrine-related genes and hormones) [11, 12]: 100 µg/L | NOEC (body length, GnRH3 neurons, reproductive neuroendocrine-related genes and hormones) [11, 12]: 1 µg/L | NOEC (developmental toxicity) ([11]; Wildtype (AB/TL), 1-6 dpf static + 6-9 dpf semistatic, ref Catron et al. (2018; 2019)): 15.3 µM | LC50(96h) ([11]; Wildtype AB, 120h-exposure, ref Yang et al. (2017)): 10.030 µg/mL (≈ 50.1 µM) | mortality ([11]; at 20 mg/L, ref Tišler et al. (2016)): 20% | LC50 ([11]; read-out: LC50(96h), Wildtype AB, 96h-exposure, ref Arrokhman et al. (2023)): 120000 nM | Edema EC50(48h) ([11]; ref Tišler et al. (2016)): 10.7 (9.4-12.2) mg/L | Hatching inhibition EC50(72h) ([11]; ref Tišler et al. (2016)): 6.8 (5.8-8.5) mg/L | Pigmentation EC50(48h) ([11]; ref Tišler et al. (2016)): 1.1 (0.92-1.3) mg/L | LC50 (96h) literature ([11]; zebrafish embryos, 95% CI, ref Mu et al.): 19.6 [18.47–20.67] mg/L | LC50 (96h) literature ([11]; zebrafish embryos, parentheses SEM, ref Moreman et al.): 32 (0.55) mg/L | LC50 (96h) literature ([11]; zebrafish embryos, ref Arrokhman et al.): 24 mg/L (≈ 120 µM) | LC50 (96h) literature ([11]; zebrafish embryos, ref Gao et al.): 24.5 mg/L (≈ 122 µM) | LC50 (96h) literature ([11]; zebrafish embryos, ref Gu et al.): 7.40 mg/L (≈ 37 µM) | Body length LOEC [11, 13]: 8 mg/L | Body length NOEC [11, 13]: 6 mg/L | LC50(24h) [11, 13]: 9.13 µg/mL (≈ 45.6 µM) | LC50(48h) [11, 13]: 8.93 µg/mL (≈ 44.6 µM) | LC50(72h) [11, 13]: 8.56 µg/mL (≈ 42.7 µM) | LC50 (96h) literature ([11]; zebrafish embryos, ref Ren et al.): 7.40 mg/L (≈ 37 µM) | Emax [8]: 71% | EC50 [6]: 17.2 µg/mL (≈ 85.9 µM) | LOEC edema [6]: 15 mg/L | LOEC head malformations [6]: 7.5 mg/L | LOEC heart rate disruption [6]: 60 mg/L | LOEC hemorrhage [6]: 7.5 mg/L | LOEC no blood tail circulation [6]: 60 mg/L | LOEC no spontaneous movement [6]: 60 mg/L | LOEC tail/spinal malformations [6]: 30 mg/L | LOEC deformity of yolk [6]: 15 mg/L
